Data as given in patent US20200172549A1, “NOVEL CHLORIN E6-CURCUMIN DERIVATIVES, PREPARATION METHOD THEREOF, AND PHARMACEUTICAL COMPOSITION CONTAINING THE SAME FOR TREATMENT OF CANCER” (DONG SUNG PHARM. CO., LTD., priority 2017, published 2020).

Legend:
[1] = test system: AsPC-1 pancreatic cancer cells; assay: Dark cytotoxicity, MTT assay, AsPC-1; format: cell-based; settings: 3 h, no light, 72 h incubation
Experimental: (§1) Dark cytotoxicity: The culture of AsPC-1 pancreatic cancer cells were grown in RPMI-1640 medium (life technologies corporation, USA) supplemented with 10% heat-inactivated fetal bovine serum (life technologies corporation, USA) and 1 penicillin (life technologies corporation, USA), whereas MIA-paca2 and PANC-1 cells were grown in DMEM. The MTT assay was used to assess the cell viability of AsPC-1, MIA-paca2, PANC-1 cells. The cells attached to a 96-well plate (5,000 cells/well) were treated with 3.125 μM, 6.25 μM, 12.5 μM, 25 μM, 50 μM of photosensitizers, 7, 10, 13, 16, and 3 for 3 h. The cells were then incubated for 72 h at 37° C. in a 5% CO2 incubator and exposed to MTT [3-(4,5-dimethylthiazol-2-yl)-2,5-diphenyl-tetrazolium bromide] (250 μg/ml) for 3 h. The solution was changed to 200 μl of dimethylsulfoxide (DMSO, Sigma). After 30 min incubation and shaking in microplate mixer, the optical density (OD) was measured using a microplate reader (Thermo Fisher scientific, USA) at 570 nm wavelength. The cell viability was calculated using the following formula: Cell viability (%)=Mean optical density of treated wells/Mean optical density of control wells×100.

[2] = test system: MIA-PaCa-2; assay: Dark cytotoxicity, MTT assay, MIA-PaCa-2; format: cell-based; settings: 3 h, no light, 72 h incubation
Experimental: as §1

[3] = test system: AsPC-1 pancreatic cancer cells; assay: Phototoxicity (PDT), MTT assay, AsPC-1; format: cell-based; settings: for Cell viability, Phototoxicity against AsPC-1: 3 h, 50 mW 0.09 J/cm^2 laser 100 sec, 72 h incubation
Experimental: as §1, with “Phototoxicity: The culture” for “Dark cytotoxicity: The culture”, “USA) and 1% penicillin (life” for “USA) and 1 penicillin (life”, “3 h. The photosensitized cells were then irradiated with a 50 mW, 0.09 J/cm^2 laser for 100 sec. The cells” for “3 h. The cells”

[4] = test system: MIA-PaCa-2; assay: Phototoxicity (PDT), MTT assay, MIA-PaCa-2; format: cell-based; settings: for Cell viability, Phototoxicity against MIA-PaCa-2: 3 h, 50 mW 0.09 J/cm^2 laser 100 sec, 72 h incubation
Experimental: as §1, with “Phototoxicity: The culture” for “Dark cytotoxicity: The culture”, “USA) and 1% penicillin (life” for “USA) and 1 penicillin (life”, “3 h. The photosensitized cells were then irradiated with a 50 mW, 0.09 J/cm^2 laser for 100 sec. The cells” for “3 h. The cells”

[5] = test system: PANC-1; assay: Phototoxicity (PDT), MTT assay, PANC-1; format: cell-based; settings: for Cell viability, Phototoxicity against PANC-1: 3 h, 50 mW 0.09 J/cm^2 laser 100 sec, 72 h incubation
Experimental: as §1, with “Phototoxicity: The culture” for “Dark cytotoxicity: The culture”, “USA) and 1% penicillin (life” for “USA) and 1 penicillin (life”, “3 h. The photosensitized cells were then irradiated with a 50 mW, 0.09 J/cm^2 laser for 100 sec. The cells” for “3 h. The cells”

[6] = Photophysical properties (absorption) in DMSO; format: physicochemical
Experimental: The photophysical properties of Ce6-curcumin conjugates and dimethyl ester ce6 were analyzed in dimethyl sulfoxide (DMSO). All the photosensitizers 7, 10, 13, and 16 (Formula IV) effectively absorbed the red light compared to dimethyl ester ce6. The major soret peak at λmax=405-408 nm and Q-bands at 667 nm for the photosensitizers 7, 10, 13, and 16 (Formula IV) and Q band peak at 656 for dimethyl ester ce6.

[7] = 12.5 μM concentration, with light

## C=Cc1c(C)c2cc3nc(c(CC(=O)OC)c4[nH]c(cc5nc(cc1[nH]2)C(C)=C5CC)c(C)c4C(=O)NCCCNC(=O)CCCC(=O)Oc1ccc(/C=C/C(=O)CC(=O)/C=C/c2ccc(O)c(OC)c2)cc1OC)C(CCC(=O)OC)C3C (centres unmarked) [Compound 7, Chlorine e6-curcumin Conjugate (7)]
[1]; 3.12 μM photosensitizer
  Cell viability, Dark Cytotoxicity against AsPC-1: 100.58%
[1]; 6.25 μM photosensitizer
  Cell viability, Dark Cytotoxicity against AsPC-1: 101.61%
[1]; 12.5 μM photosensitizer
  Cell viability, Dark Cytotoxicity against AsPC-1: 103.72%
[1]; 25 μM photosensitizer
  Cell viability, Dark Cytotoxicity against AsPC-1: 97.17%
[1]; 50 μM photosensitizer
  Cell viability, Dark Cytotoxicity against AsPC-1: 90.14%
[2]; 3.12 μM photosensitizer
  Cell viability, Dark cytotoxicity against MIA-PaCa-2: 107.39%
[2]; 6.25 μM photosensitizer
  Cell viability, Dark cytotoxicity against MIA-PaCa-2: 104.17%
[2]; 12.5 μM photosensitizer
  Cell viability, Dark cytotoxicity against MIA-PaCa-2: 101.89%
[2]; 25 μM photosensitizer
  Cell viability, Dark cytotoxicity against MIA-PaCa-2: 99.23%
[2]; 50 μM photosensitizer
  Cell viability, Dark cytotoxicity against MIA-PaCa-2: 88.84%
[3]; 3.12 μM photosensitizer
  Cell viability, Phototoxicity against AsPC-1: 85.97%
[3]; 6.25 μM photosensitizer
  Cell viability, Phototoxicity against AsPC-1: 43.03%
[3]; [7]
  Inhibition of AsPC-1 (PDT): 75%
[3]; 12.5 μM photosensitizer
  Cell viability, Phototoxicity against AsPC-1: 24.03%
[3]; 25 μM photosensitizer
  Cell viability, Phototoxicity against AsPC-1: 10.35%
[3]; 50 μM photosensitizer
  Cell viability, Phototoxicity against AsPC-1: 6.63%
[4]; 3.12 μM photosensitizer
  Cell viability, Phototoxicity against MIA-PaCa-2: 69.70%
[4]; 6.25 μM photosensitizer
  Cell viability, Phototoxicity against MIA-PaCa-2: 12.35%
[4]; [7]
  Inhibition of MIA-PaCa-2 (PDT): 94%
[4]; 12.5 μM photosensitizer
  Cell viability, Phototoxicity against MIA-PaCa-2: 6.03%
[4]; 25 μM photosensitizer
  Cell viability, Phototoxicity against MIA-PaCa-2: 5.18%
[4]; 50 μM photosensitizer
  Cell viability, Phototoxicity against MIA-PaCa-2: 4.99%
[5]; 3.12 μM photosensitizer
  Cell viability, Phototoxicity against PANC-1: 66.14%
[5]; 6.25 μM photosensitizer
  Cell viability, Phototoxicity against PANC-1: 31.56%
[5]; [7]
  Inhibition of PANC-1 (PDT): 88%
[5]; 12.5 μM photosensitizer
  Cell viability, Phototoxicity against PANC-1: 12.33%
[5]; 25 μM photosensitizer
  Cell viability, Phototoxicity against PANC-1: 11.58%
[5]; 50 μM photosensitizer
  Cell viability, Phototoxicity against PANC-1: 11.87%
[6]
  Q-band peak: 667 nm
